Tested on: Mtb-infected mouse lungs
Assay: Genome-wide lung transcriptome (microarray, IPA network/GO analysis) of Mtb-infected mice
Format: in vivo
Design: SDEGs upregulated in TNF-α interaction network / SDEGs downregulated in TNF-α interaction network: unit not given here
[1] = TNF-a regulon network, Mtb-infected mouse lungs, CC-11050 treated
[2] = lungs of treated infected animals

`CCOc1cc([C@@H](CS(C)(=O)=O)N2Cc3cccc(NC(=O)C4CC4)c3C2=O)ccc1OC` [CC-11050, N-[2-[(1S)-1-(3-ethoxy-4-methoxyphenyl)-2-(methylsulfonyl)ethyl]-2,3-dihydro-3-oxo-1H-isoindol-4-yl]-(9Cl) cyclopropanecarboxamide] showed a PCK2 expression (TNF-a regulon network) of 0, a PCP4 expression (TNF-a regulon network) of 0 and a PCSK6 expression (TNF-a regulon network) of 0. For the same molecule, the PDCD1 expression (TNF-a regulon network) was 0, the PDE2A expression (TNF-a regulon network) was 0 and the PDE8B expression (TNF-a regulon network) was 0. The PDGFA expression (TNF-a regulon network) was 0, the PDPN expression (TNF-a regulon network) was -1.216 and the PDZD2 expression (TNF-a regulon network) was 0. The PECAM1 expression (TNF-a regulon network) was 0, the PENK expression (TNF-a regulon network) was 0 and the PIGR expression (TNF-a regulon network) was 0. For the same molecule, the PKMYT1 expression (TNF-a regulon network) was 0, the PLA2G5 expression (TNF-a regulon network) was 0 and the PLA2G16 expression (TNF-a regulon network) was 0. For the same molecule, the PLAUR expression (TNF-a regulon network) was 0, the PLIN1 expression (TNF-a regulon network) was 0 and the PLIN4 expression (TNF-a regulon network) was 0. The PLK3 expression (TNF-a regulon network) was 0, the PLSCR1 expression (TNF-a regulon network) was 0 and the PML expression (TNF-a regulon network) was 0. For the same molecule, the PPAP2A expression (TNF-a regulon network) was 1.247, the PPARA expression (TNF-a regulon network) was 0 and the PPARD expression (TNF-a regulon network) was 0. The PPARG expression (TNF-a regulon network) was 0, the PPARGC1A expression (TNF-a regulon network) was 0 and the PPP1R3C expression (TNF-a regulon network) was 0. For the same molecule, the PRKCD expression (TNF-a regulon network) was 0, the PRSS23 expression (TNF-a regulon network) was 0 and the PSMA2 expression (TNF-a regulon network) was 0. For the same molecule, the PSMB8 expression (TNF-a regulon network) was 0, the PSMB9 expression (TNF-a regulon network) was 0 and the PSMB10 expression (TNF-a regulon network) was 0. The PSME1 expression (TNF-a regulon network) was 0, the PSME2 expression (TNF-a regulon network) was 0 and the PXMP2 expression (TNF-a regulon network) was 0. The PYCARD expression (TNF-a regulon network) was 0, the RAB32 expression (TNF-a regulon network) was 0 and the RARRES2 expression (TNF-a regulon network) was 0. For the same molecule, the RASD1 expression (TNF-a regulon network) was 0, the RCAN1 expression (TNF-a regulon network) was 0 and the RCN3 expression (TNF-a regulon network) was 1.2203. It also gave an REL expression (TNF-a regulon network) of 0, an RETN expression (TNF-a regulon network) of 0 and an RFTN1 expression (TNF-a regulon network) of 0. The RFX5 expression (TNF-a regulon network) was 0, the RGS1 expression (TNF-a regulon network) was 0 and the RGS2 expression (TNF-a regulon network) was 0. It also gave an RGS4 expression (TNF-a regulon network) of 0, an RGS5 expression (TNF-a regulon network) of 0 and an RGS7 expression (TNF-a regulon network) of 0. For the same molecule, the RGS14 expression (TNF-a regulon network) was 0, the RGS16 expression (TNF-a regulon network) was 0 and the RIPK1 expression (TNF-a regulon network) was 0. It also gave an RIPK2 expression (TNF-a regulon network) of 0, an RNASE2 expression (TNF-a regulon network) of 0 and an RNASE4 expression (TNF-a regulon network) of 0. For the same molecule, the RND3 expression (TNF-a regulon network) was -1.216, the RNF149 expression (TNF-a regulon network) was 0 and the ROBO1 expression (TNF-a regulon network) was 1.1568. The RRM2 expression (TNF-a regulon network) was 0, the RUNX2 expression (TNF-a regulon network) was 0 and the S100A8 expression (TNF-a regulon network) was 0. It also gave an SAA2 expression (TNF-a regulon network) of 0, an SAMD4A expression (TNF-a regulon network) of 0 and an SCNN1A expression (TNF-a regulon network) of 0. The SCNN1B expression (TNF-a regulon network) was 0, the SCNN1G expression (TNF-a regulon network) was 1.211 and the SCUBE1 expression (TNF-a regulon network) was 0. For the same molecule, the SCUBE2 expression (TNF-a regulon network) was 1.331, the SDC2 expression (TNF-a regulon network) was 0 and the SELPLG expression (TNF-a regulon network) was 0. For the same molecule, the SEMA3C expression (TNF-a regulon network) was 1.231, the SEPP1 expression (TNF-a regulon network) was 0 and the SERPINB9 expression (TNF-a regulon network) was 0. For the same molecule, the SERPINE2 expression (TNF-a regulon network) was 0, the SERPINF1 expression (TNF-a regulon network) was 0 and the SHH expression (TNF-a regulon network) was 0. For the same molecule, the SLC14A1 expression (TNF-a regulon network) was 0, the SLC1A2 expression [1] was 0 and the SLC1A3 expression [1] was 0. For the same molecule, the SLC1A4 expression [1] was 0, the SLC2A6 expression [1] was 0 and the SLC5A8 expression [1] was 0. For the same molecule, the SLC7A8 expression [1] was 0, the SLC20A1 expression [1] was 0 and the SLFN12L expression [1] was 0. It also gave an SMAD3 expression [1] of 0, an SMPD1 expression [1] of 0 and an SMPD2 expression [1] of 0. The SMPDL3A expression [1] was 1.176, the SMURF1 expression [1] was 0 and the SMURF2 expression [1] was 1.4579. The SNCG expression [1] was 0, the SND1 expression [1] was 0 and the SOCS3 expression [1] was 0. The SOD1 expression [1] was 1.19, the SP1 expression [1] was 0 and the SP3 expression [1] was 0. For the same molecule, the SPHK1 expression [1] was 0, the SQSTM1 expression [1] was 0 and the ST3GAL5 expression [1] was 0. It also gave an ST3GAL6 expression [1] of 0, an ST6GAL1 expression [1] of 0 and an STARD3 expression [1] of 0. It also gave an STAT4 expression [1] of 0, an STEAP4 expression [1] of 0 and an STMN1 expression [1] of -1.16. The SULT2A1 expression [1] was 0, the SYTL1 expression [1] was 0 and the Slco1a4 expression [1] was 0. It also gave a TAP1 expression [1] of 0, a TAPBP expression [1] of 0 and a TBX21 expression [1] of 0. The TBXAS1 expression [1] was 0, the TDRD7 expression [1] was 0 and the TEK expression [1] was 0. It also gave a TF expression [1] of 0, a THY1 expression [1] of 0 and a TIMP2 expression [1] of 0. It also gave a TIMP4 expression [1] of 0, a TJP1 expression [1] of 0 and a TLR7 expression [1] of 0. The TLR8 expression [1] was 0, the TM4SF1 expression [1] was 0 and the TNF expression [1] was 0. The TNFAIP2 expression [1] was 0, the TNFAIP3 expression [1] was 0 and the TNFAIP6 expression [1] was 0. It also gave a TNFAIP8 expression [1] of 0, a TNFRSF11A expression [1] of -1.191 and a TNFRSF18 expression [1] of 0. The TNFSF10 expression [1] was 0, the TNFSF13B expression [1] was 0 and the TNIP1 expression [1] was 0. For the same molecule, the TNN expression [1] was 0, the TPD52L2 expression [1] was 1.132 and the TPT1 expression [1] was 0. It also gave a TRADD expression [1] of 0, a TRAF1 expression [1] of 0 and a TRAF2 expression [1] of 0. For the same molecule, the TRAF3 expression [1] was 0, the TRAFD1 expression [1] was 0 and the TREM2 expression [1] was 0. It also gave a TWIST2 expression [1] of 0, a TXNIP expression [1] of 1.1361 and a TYK2 expression [1] of 0. For the same molecule, the Tgtp1/Tgtp2 expression [1] was 0, the UBD expression [1] was 0 and the UBE2H expression [1] was 0. It also gave a UCP1 expression [1] of 0, a VASP expression [1] of 0 and a VCAM1 expression [1] of 0. For the same molecule, the VIPR2 expression [1] was 0, the WHSC1 expression [1] was 0 and the WISP1 expression [1] was 0. For the same molecule, the WLS expression [1] was 0, the WNT5A expression [1] was 0 and the WNT7A expression [1] was 0. The WTAP expression [1] was 0, the ZC3H12A expression [1] was 0 and the ZNF365 expression [1] was 0. The “Genes downregulated in lung inflammation network” value [2] was “four”, the “Genes upregulated in lung inflammation network” value [2] was “nine” and the “SDEGs downregulated in TNF-α interaction network” value [2] was 8. The “SDEGs upregulated in TNF-α interaction network” value [2] was 33, the “Il-17 interaction network genes whose expression was dampened” value (lungs of treated infected mice) was 87% and the “Genes significantly differentially expressed in Il-17 interaction network” value (lungs of treated infected mice, HmgB1, Il17F, Entpd1, HspB8) was “four”.

Reference: publication PMC4911353, “Pharmacologic Inhibition of Host Phosphodiesterase-4 Improves Isoniazid-Mediated Clearance of Mycobacterium tuberculosis” (Frontiers in Immunology, 2016)
